{"source": "patent US20220185797A1", "about": "“SELECTIVE FOXO INHIBITORS FOR TREATMENT OF DIABETES AND OTHER DISORDERS RELATED TO IMPAIRED PANCREATIC FUNCTION” (THE TRUSTEES OF COLUMBIA UNIVERSITYIN THE CITY OF NEW YORK, priority 2019, published 2022)", "key": {"[1]": {"test": "Metabolic stability in human microsomes", "conditions": "for % remaining at 45 min: Human microsome"}, "[2]": {"test": "Metabolic stability in dog microsomes", "conditions": "for % remaining at 45 min: Dog microsome; for metabolic stability compared with Compound 9 (Langlet et al.): dog and/or human microsomes, in words"}, "[3]": {"test": "Metabolic stability in mouse microsomes", "assay_type": "in vitro ADME", "conditions": "for microsomal CLint at 0.75 h, 0.3 μM: CD-1, liver microsomes, pH 7.4, in vitro intrinsic clearance; for microsomal CLint at 0.75 h, 0.3 μM / % remaining at 45 min: Mouse microsome, 0.3 μM; for metabolic stability compared with Compound 10 (Langlet et al.): mouse microsomes, and/or human hepatocytes, in words"}, "[4]": {"test": "Metabolic stability in human hepatocytes", "conditions": "for % remaining at 90 min: Human hepatocyte, 0.3 μM; for hepatocyte CLint at 1.5 h, 0.3 µM: human, hepatocytes (cryopreserved)", "experimental": "An in vitro system comprising human Hepatocytes was employed. The incubation conditions and sampling time point of test article and positive control were as follows. Test articles (0.3 μM) and positive controls (verapamil) were incubated in a 0.2mL volume in 96-well format. Stock solutions were received at 10 mM in DMSO and the Final DMSO % in incubation was 0.01%. […] Incubation plates were shaken on an automated orbital shaker at 600 rpm. Incubation time points were: 0, 15, 30, 60, 90 minutes.\nFollowing this pre-incubation period, the test compound (DMSO stock solution) was added to the incubation plate, which was mixed to initiate the incubation. The reaction plate was sampled (20 μL aliquot) at the pre-determined incubation time points, the sample quenched with 80 μL of Stop solution with internal standard (Acetonitrile with 0.1% (v/v) formic acid containing 100 nM labetalol, 20 nM imipramine, and 200 nM diclofenac) and the samples were mixed well. After quenching the reaction, the reaction mixture was centrifuged and the samples were submitted for LC-MS/MS analysis. Depletion rate (kdep, min^−1) and % compound remaining was calculated by peak area ratio (PAR) with internal standard at each time point relative to time 0 min. The estimation of Clint(Unscaled) (in μl/min/10^6 cells) was performed with the following equation:"}, "human FOXO1": {"molecular_target": "T1, human FOXO1 (Homo sapiens, UniProt Q12778)", "T1 construct": "expressed in transfected cells; host or cells: HEK293", "T1 sequence (Q12778 whole entry)": "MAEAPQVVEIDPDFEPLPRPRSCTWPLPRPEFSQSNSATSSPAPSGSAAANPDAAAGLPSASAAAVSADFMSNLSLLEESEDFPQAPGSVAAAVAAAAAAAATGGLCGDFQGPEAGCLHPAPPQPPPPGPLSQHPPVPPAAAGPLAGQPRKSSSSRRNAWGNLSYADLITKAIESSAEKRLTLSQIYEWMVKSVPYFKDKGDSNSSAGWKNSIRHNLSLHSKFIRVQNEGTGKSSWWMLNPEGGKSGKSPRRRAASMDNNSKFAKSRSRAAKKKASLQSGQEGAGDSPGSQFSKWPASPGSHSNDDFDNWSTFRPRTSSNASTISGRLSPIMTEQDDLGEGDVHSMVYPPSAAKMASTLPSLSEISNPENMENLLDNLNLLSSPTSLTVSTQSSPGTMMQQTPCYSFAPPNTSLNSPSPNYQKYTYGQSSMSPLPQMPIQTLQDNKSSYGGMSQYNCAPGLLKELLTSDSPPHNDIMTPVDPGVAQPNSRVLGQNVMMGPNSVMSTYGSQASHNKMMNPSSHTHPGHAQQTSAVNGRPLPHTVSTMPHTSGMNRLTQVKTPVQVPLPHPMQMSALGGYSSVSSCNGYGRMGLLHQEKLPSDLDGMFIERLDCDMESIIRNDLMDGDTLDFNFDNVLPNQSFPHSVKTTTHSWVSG", "test": "FOXO1 transcriptional reporter assay (insulin response element firefly luciferase / Renilla) in HEK293 cells", "assay_type": "cell-based", "conditions": "HEK293 cells transfected with human FOXO1, 24 hours, class combines IC50 and maximal inhibition; read-out: IC50 (active range)", "description": "The activities of FOXO1 inhibitors were determined by a transcriptional reporter assay. HEK293 cells were plated onto 96-well plates with moat at 20000 cells per well in Eagle's Minimum Essential Medium (EMEM) containing 1% fetal bovine serum, and incubated overnight at 37° C. and 5% CO2. […] Compounds were then added at varying final concentrations ranging from 50 μM to 1 nM, with final DMSO concentration of 0.5% in each well. Duplicate wells were included for each treatment condition. Cells were incubated for 24 hours at 37° C. and 5% CO2. Luciferase activities in each well were measured using Dual-Glo Luciferase Assay System (Promega) according to manufacturer's protocol and a plate reader suitable for luminescence detection. Firefly luciferase activity was divided by Renilla luciferase activity to calculate a ratio for each well. The ratio in wells containing cells transfected with all 3 plasmids listed above and receiving only DMSO without compound addition was set to 100%. The ratio in wells containing cells transfected with plasmids (1), (3), and 5 ng of pcDNA3.1 containing the open reading frame of red fluorescent protein (instead of human FOXO1) and treated with DMSO only was set to 0%. The ratio in each well receiving compound treatment was normalized and expressed as a percentage. Data were fit by 4-parameter logistic regression to determine IC50 and maximal inhibition values. Each compound was tested in a minimum of 2 independent experiments."}, "[5]": {"molecular_target": "T2, acetylcholinesterase (AChE) (Homo sapiens, UniProt P22303)", "T2 construct": "host or cells: CHO cells", "T2 sequence (P22303 32-614)": "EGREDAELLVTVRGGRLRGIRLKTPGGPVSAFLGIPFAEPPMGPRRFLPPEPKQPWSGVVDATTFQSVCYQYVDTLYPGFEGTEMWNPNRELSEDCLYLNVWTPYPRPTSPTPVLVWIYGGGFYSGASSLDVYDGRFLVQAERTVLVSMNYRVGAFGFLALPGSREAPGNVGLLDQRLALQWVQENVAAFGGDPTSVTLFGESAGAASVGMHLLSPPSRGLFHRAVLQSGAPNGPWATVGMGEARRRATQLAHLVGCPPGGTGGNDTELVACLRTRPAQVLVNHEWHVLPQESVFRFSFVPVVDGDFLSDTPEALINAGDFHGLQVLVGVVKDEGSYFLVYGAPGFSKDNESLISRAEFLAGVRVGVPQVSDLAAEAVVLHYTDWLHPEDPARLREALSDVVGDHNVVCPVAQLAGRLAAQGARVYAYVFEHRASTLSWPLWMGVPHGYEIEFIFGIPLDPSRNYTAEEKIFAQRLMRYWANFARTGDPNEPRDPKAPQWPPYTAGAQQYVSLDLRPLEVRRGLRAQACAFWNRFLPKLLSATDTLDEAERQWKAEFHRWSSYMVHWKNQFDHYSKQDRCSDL", "test": "biochemical", "assay_type": "biochemical", "description": "The protein source was Human (recombinant) Expressed in CHO cells. The enzymatic activity was studied. The method employed was the detection of conversion of acetylthiocholine to thiocholine using DTNB. The substrate employed was Acetylthiocholine.\nEnzyme and test compound were pre-incubated for 15 minutes at room temp before substrate addition. Acetylthiocholine and DTNB (5,5′-dithiobis-(2-nitrobenzoic acid)) were added and incubated at room temperature for 30 minutes. Signal was detected by measuring absorbance at 405 nm.\nPercentage inhibition was calculated using the following formula: […]"}, "[6]": {"conditions": "selectivity studies, Table 4, read-out: AChE IC50"}, "[7]": {"conditions": "Human recombinant AChE expressed in CHO cells, read-out: AChE Inhibitor IC50"}}, "note": "Where two headings read alike, the source gives them in different places. Marks after values point to notes of the source that are not given here."}
{"smiles": "COc1ccc(C(=O)Nc2cc(-c3nc4ccccc4[nH]3)n[nH]2)cc1Cl", "note": "[Compound 1, reference compound]", "values": [{"measurement": "% remaining at 45 min", "setting": "[1]", "value": 3.2, "unit": "%"}, {"measurement": "microsomal CLint at 0.75 h, 0.3 μM", "setting": "[1]; human, microsomes, pH 7.4", "value": 306, "unit": "µL/min/mg"}, {"measurement": "% remaining at 45 min", "setting": "[2]", "value": 12, "unit": "%"}, {"measurement": "microsomal CLint at 0.75 h, 0.3 μM", "setting": "[2]; dog, microsomes, pH 7.4", "value": 185, "unit": "µL/min/mg"}]}
{"smiles": "CN1CCN(c2ccc(C(=O)Nc3cc(-c4nc5ccccc5[nH]4)n[nH]3)cc2)CC1", "note": "[Compound 2, reference compound]", "values": [{"measurement": "microsomal CLint at 0.75 h, 0.3 μM", "setting": "[3]", "value": 206, "unit": "µL/min/mg"}, {"measurement": "% remaining at 45 min", "setting": "[3]", "value": 10, "unit": "%"}, {"measurement": "% remaining at 90 min", "setting": "[4]", "value": 22, "unit": "%"}, {"measurement": "hepatocyte CLint at 1.5 h, 0.3 µM", "setting": "[4]", "value": 18, "unit": "µL/min/1e6 cells"}, {"measurement": "IC50", "setting": "human FOXO1", "value": "< 50", "unit": "nM"}, {"measurement": "IC50", "setting": "[5]; [6]", "value": 1710, "unit": "nM"}]}
{"smiles": "COc1cc(C(=O)Nc2cc(-c3nc4ccccc4[nH]3)n[nH]2)ccc1Cl", "note": "[Compound 20]", "values": [{"measurement": "% remaining at 45 min", "setting": "[1]", "value": 52, "unit": "%"}, {"measurement": "microsomal CLint at 0.75 h, 0.3 μM", "setting": "[1]; human, microsomes, pH 7.4", "value": 57, "unit": "µL/min/mg"}, {"measurement": "% remaining at 45 min", "setting": "[2]", "value": 53, "unit": "%"}, {"measurement": "metabolic stability compared with Compound 9 (Langlet et al.)", "setting": "[2]", "value": "significantly more stable"}, {"measurement": "microsomal CLint at 0.75 h, 0.3 μM", "setting": "[2]; dog, microsomes, pH 7.4", "value": 58, "unit": "µL/min/mg"}]}
{"smiles": "O=C(Nc1cc(-c2nc3ccccc3[nH]2)n[nH]1)c1ccc(O)c(Cl)c1", "note": "[Compound 24]", "values": [{"measurement": "% remaining at 45 min", "setting": "[1]", "value": 93, "unit": "%"}, {"measurement": "microsomal CLint at 0.3 μM", "setting": "[1]; human, microsomes, pH 7.4", "value": "< 20", "unit": "µL/min/mg"}, {"measurement": "% remaining at 45 min", "setting": "[2]", "value": 88, "unit": "%"}, {"measurement": "metabolic stability compared with Compound 9 (Langlet et al.)", "setting": "[2]", "value": "significantly more stable"}, {"measurement": "microsomal CLint at 0.3 μM", "setting": "[2]; dog, microsomes, pH 7.4", "value": "< 20", "unit": "µL/min/mg"}]}
{"smiles": "CC(=O)Nc1cc(-c2nc3ccccc3[nH]2)n[nH]1", "note": "[Compound 29]", "values": [{"measurement": "IC50", "setting": "human FOXO1", "value": "> 10000", "unit": "nM"}]}
{"smiles": "Nc1cc(-c2nc3ccccc3[nH]2)n[nH]1", "note": "[Compound 32]", "values": [{"measurement": "IC50", "setting": "human FOXO1", "value": "> 10000", "unit": "nM"}]}
{"smiles": "CC(=O)N1CCN(c2ccc(C(=O)Nc3cc(-c4nc5ccccc5[nH]4)n[nH]3)cc2)CC1", "note": "[Compound 35]", "values": [{"measurement": "microsomal CLint at 0.75 h, 0.3 μM", "setting": "[3]", "value": 70, "unit": "µL/min/mg"}, {"measurement": "% remaining at 45 min", "setting": "[3]", "value": 44, "unit": "%"}, {"measurement": "metabolic stability compared with Compound 10 (Langlet et al.)", "setting": "[3]", "value": "significantly more stable"}, {"measurement": "IC50", "setting": "human FOXO1", "value": "< 1000", "unit": "nM"}]}
{"smiles": "O=C(Nc1cc(-c2nc3ccccc3[nH]2)n[nH]1)c1ccc(N2CCNCC2)cc1", "note": "[Compound 36]", "values": [{"measurement": "microsomal CLint at 0.75 h, 0.3 μM", "setting": "[3]", "value": 41, "unit": "µL/min/mg"}, {"measurement": "% remaining at 45 min", "setting": "[3]", "value": 68, "unit": "%"}, {"measurement": "metabolic stability compared with Compound 10 (Langlet et al.)", "setting": "[3]", "value": "significantly more stable"}, {"measurement": "% remaining at 90 min", "setting": "[4]", "value": "110 * %"}, {"measurement": "hepatocyte CLint at 1.5 h, 0.3 µM", "setting": "[4]", "value": 2.6, "unit": "µL/min/1e6 cells"}, {"measurement": "IC50", "setting": "[5]; [7]", "value": "> 10000", "unit": "nM"}]}
{"smiles": "COc1ccc(C(=O)N(C)c2cc(-c3nc4ccccc4[nH]3)n[nH]2)cc1Cl", "note": "[Compound 37]", "values": [{"measurement": "IC50", "setting": "[5]; [6]", "value": "> 10000", "unit": "nM"}]}
{"smiles": "CN1CCC(c2ccc(C(=O)Nc3cc(-c4nc5ccccc5[nH]4)n[nH]3)cc2)CC1", "note": "[Compound 42]", "values": [{"measurement": "IC50", "setting": "human FOXO1", "value": "< 1000", "unit": "nM"}]}
{"smiles": "O=C(Nc1cc(-c2nc3ccccc3[nH]2)[nH]n1)c1ccc(N2CCOCC2)cc1", "note": "[Compound 67]", "values": [{"measurement": "microsomal CLint at 0.75 h, 0.3 μM", "setting": "[3]", "value": 52, "unit": "µL/min/mg"}, {"measurement": "% remaining at 45 min", "setting": "[3]", "value": 58, "unit": "%"}, {"measurement": "metabolic stability compared with Compound 10 (Langlet et al.)", "setting": "[3]", "value": "significantly more stable"}, {"measurement": "IC50", "setting": "[5]; [7]", "value": "> 10000", "unit": "nM"}]}
{"smiles": "COc1ccc(C(=O)Nc2cc(-c3nc4c(F)cccc4[nH]3)[nH]n2)cc1Cl", "note": "[Compound 73]", "values": [{"measurement": "% remaining at 45 min", "setting": "[1]", "value": 13, "unit": "%"}, {"measurement": "microsomal CLint at 0.75 h, 0.3 μM", "setting": "[1]; human, microsomes, pH 7.4", "value": 184, "unit": "µL/min/mg"}, {"measurement": "% remaining at 45 min", "setting": "[2]", "value": 31, "unit": "%"}, {"measurement": "metabolic stability compared with Compound 9 (Langlet et al.)", "setting": "[2]", "value": "significantly more stable"}, {"measurement": "microsomal CLint at 0.75 h, 0.3 μM", "setting": "[2]; dog, microsomes, pH 7.4", "value": 104, "unit": "µL/min/mg"}]}
{"smiles": "COc1ccc(C(=O)Nc2cc(-c3nc4cc(OC(F)(F)F)ccc4[nH]3)[nH]n2)cc1Cl", "note": "[Compound 84]", "values": [{"measurement": "IC50", "setting": "human FOXO1", "value": "1000 to 10000", "unit": "nM"}]}
{"smiles": "COc1ccc(C(=O)Nc2cc(-c3nc4c(C(F)(F)F)cccc4[nH]3)[nH]n2)cc1Cl", "note": "[Compound 85]", "values": [{"measurement": "IC50", "setting": "human FOXO1", "value": "< 1000", "unit": "nM"}]}
{"smiles": "COc1ccc(C(=O)Nc2cc(-c3nc4cc(C(F)(F)F)ccc4[nH]3)[nH]n2)cc1Cl", "note": "[Compound 86]", "values": [{"measurement": "IC50", "setting": "human FOXO1", "value": "< 1000", "unit": "nM"}]}
